In patent US20050267124A1, “Pharmaceutical compositions comprising NEP-inhibitors, inhibitors of the endogenous producing system and PDEV inhibiitors” (Solvay Pharmaceuticals GmbH, priority 2004, published 2005):

Columns and labels:
Male Sprague-Dawley rats = assay: Big-ET-induced hypertension following intravenous bolus administration in rats; format: in vivo, rat; conditions: for Maximal Big-ET-induced increase in SAP: anaesthetised rats, i.v. bolus sildenafil 1 mg/kg and/or compound of Formula IV 10 μmol/kg, 0.5 nmol/kg Big-ET 8 min later, mean increase from baseline
Method: 1. Big-ET-Induced Hypertension Following Intravenous Bolus Administration in Rats
Male Sprague-Dawley rats (˜[…], fed a standard chow diet, fasted for 18 h prior to the experiments, with free access to drinking water) were anaesthetised with 1 ml/kg Rompun/Ketavet 1:1, and then transferred to servo-controlled, heated tables to maintain body temperature at 37° C. A pressure transducer (Statham) was connected to one carotid artery for measurement of arterial blood pressure. Both jugular veins were cannulated for compound and Big-ET-infusion (Big-ET=endogenous precursor of endothelin), respectively. After an equilibration period of 20 minutes (=min), the animals received either vehicle (10% arlatone G, 10% ethanol, 80% H2O), sildenafil (1 mg/kg), compound of Formula IV (10 μmol/kg), or a combination of sildenafil+compound of Formula IV intravenously (over 1 min in a total volume of 2 ml/kg body weight). 8 min later, 0.5 nmol/kg Big-ET was infused (over 1 min; Big-ET was from Bachem, Heidelberg). Systolic (SAP) and diastolic arterial blood pressures and heart rate were recorded every 5 min for the next 15 min.
The maximal pressor and bradycardic effects were typically reached within 5 min following Big-ET administration.
(§1) The results are expressed as mean±SEM of the maximal systolic blood pressure increase (from baseline) observed after the Big-ET challenge (n: number of animals). 2. Effect on Blood Pressure in Spontaneously Hypertensive Rats

[1] = test system: spontaneously hypertensive rats (SHR); assay: Effect on blood pressure in spontaneously hypertensive rats (telemetry); format: in vivo, rat; conditions: i.v. sildenafil 3 mg/kg, alone or with compound of Formula IV 10 μmol/kg, change vs. baseline averaged over last 15 min of 30 min after treatment
Source text: as §1
Male spontaneously hypertensive rats (=SHR, insulin resistant strain from Charles River; aged 6 months) were equipped with telemetry transmitters for continuous monitoring of blood pressure and heart rate. Telemetry transmitters for continuous monitoring of blood pressure, heart rate and locomotor activity (TA11PA-C40, Data Sciences, USA) were implanted intraabdominally under inhalative halothane anesthesia. A midline abdominal incision was made, and the abdominal aorta was visualized by removal of retroperitoneal fat and connective tissue. A ligature was placed caudal of the renal arteries, the aorta was punctured with a 22G needle, and the catheter was advanced into the aorta. The entry point was sealed with tissue adhesive (Vetbond®, 3M, USA), the ligature was removed, and the abdominal incision was closed. […]
On the day of the experiments, blood pressure was first monitored for 30 min under baseline (untreated) conditions before a group of animals received sildenafil (3 mg/kg), and another one sildenafil (3 mg/kg) combined with compound of Formula IV (10 μmol/kg) via injection into the caudal vein. Blood pressure was then measured for another 30 min. […]

## CCCc1nn(C)c2c(=O)[nH]c(-c3cc(S(=O)(=O)N4CCN(C)CC4)ccc3OCC)nc12 [Sildenafil, sildenafil]
Male Sprague-Dawley rats; after i.v. sildenafil 1 mg/kg, until timepoint of Big-ET application
  time for which the drop in blood pressure was stable: at least 8 min
Male Sprague-Dawley rats
  Maximal Big-ET-induced increase in SAP: 42.6 mm Hg
Male Sprague-Dawley rats; immediately after i.v. administration, before the Big-ET challenge, sildenafil 1 mg/kg, compound of Formula IV 10 μmol/kg
  drop in systolic blood pressure as compared to baseline: 15±3 mm Hg
[1]
  Average change in systolic blood pressure: −10.5 mm Hg

## O=C(O)CN1C(=O)C(NC(=O)C2(CC(CCc3ccccc3)C(=O)O)CCCC2)CCc2ccccc21 (stereo not drawn) [compound of Formula IV, 2-[1-(1-carboxymethyl-2-oxo-2,3,4,5-tetrahydro-1H-benzo[b]azepin-3-ylcarbamoyl)-cyclopentylmethyl]-4-phenyl-butyric acid]
Male Sprague-Dawley rats
  Maximal Big-ET-induced increase in SAP: 43.0 mm Hg
Male Sprague-Dawley rats; compound of Formula IV 10 μmol/kg i.v. with sildenafil 1 mg/kg, before Big-ET challenge
  effect on the hypotensive action of sildenafil: not reinforce the hypotensive action of sildenafil
